Molecular target: T1, VPS34 (Homo sapiens, UniProt Q8NEB9)
T1 construct: GST (N); host or cells: SF9 insect cells (baculovirus)
Assay: Human VPS34 enzyme assay (Adapta TR-FRET)
Type: biochemical
Details: for inhibition at 1.11 µM: 1 h, at a 1.11 μM concentration, read-out: VPS34 Percent Inhibition
Method: VPS34 (accession number GB:BCO33004) was cloned into pDEST20-Thombin as N-terminal GST tagged fusion proteins using the Gateway system (Invitrogen, catalog#11804-013). The sequences were verified before recombinant protein expression using the Baculovirus Expression System with Gateway® Technology.
For expression VPS34 was infected at 1MOI in SF9 cells and harvested 72 hours post infection.
For purification, VPS34 is purified by Glutathione Sepharose 4 Fast Flow (GE Healthcare #17-5132-03) followed by HiTrap Q (GE Healthcare #17-1153-01).
Human VPS34 Enzyme Assay Method
100 nL compounds in DMSO are added to wells of a 384 well microtitre plate (Greiner 780076). At room temperature: 5 ul VPS34 reaction buffer (Invitrogen Assay Buffer Q (diluted 1 in 5 with nanopure water) plus 2 mM DTT and 2 mM MnCl2) containing ATP (20 uM, Promega) and 200 uM PI-PS substrate (Invitrogen PV5122) is added followed immediately by 5 ul VPS34 reaction buffer (as above) containing VPS34 (5 nM, Millennium Protein Sciences Group) and the mixture is incubated with shaking at room temperature for 1 hour. Then 5 ul VPS34 stop-detect mix (as per Invitrogen Adapta Assay kit (PV5009) instructions (contains kinase quench buffer, TR-FRET buffer, Adapta Eu anti-ADP antibody and Alexa Fluor 647 ADP tracer)) is added to quench the reaction. The plates are then incubated for 30 minutes at room temperature with shaking and then read on a BMG PheraStar Plus reader.
For the assay methods described above, test compound percent inhibition, at various concentrations, is calculated relative to control (DMSO and EDTA) treated samples. Compound concentration versus percent inhibition curves are fitted to generate IC50 values. One skilled in the art will appreciate that the values generated either as percentage inhibition at a single concentration or IC50 values are subject to experimental variation.

T1 sequence (Q8NEB9 whole entry): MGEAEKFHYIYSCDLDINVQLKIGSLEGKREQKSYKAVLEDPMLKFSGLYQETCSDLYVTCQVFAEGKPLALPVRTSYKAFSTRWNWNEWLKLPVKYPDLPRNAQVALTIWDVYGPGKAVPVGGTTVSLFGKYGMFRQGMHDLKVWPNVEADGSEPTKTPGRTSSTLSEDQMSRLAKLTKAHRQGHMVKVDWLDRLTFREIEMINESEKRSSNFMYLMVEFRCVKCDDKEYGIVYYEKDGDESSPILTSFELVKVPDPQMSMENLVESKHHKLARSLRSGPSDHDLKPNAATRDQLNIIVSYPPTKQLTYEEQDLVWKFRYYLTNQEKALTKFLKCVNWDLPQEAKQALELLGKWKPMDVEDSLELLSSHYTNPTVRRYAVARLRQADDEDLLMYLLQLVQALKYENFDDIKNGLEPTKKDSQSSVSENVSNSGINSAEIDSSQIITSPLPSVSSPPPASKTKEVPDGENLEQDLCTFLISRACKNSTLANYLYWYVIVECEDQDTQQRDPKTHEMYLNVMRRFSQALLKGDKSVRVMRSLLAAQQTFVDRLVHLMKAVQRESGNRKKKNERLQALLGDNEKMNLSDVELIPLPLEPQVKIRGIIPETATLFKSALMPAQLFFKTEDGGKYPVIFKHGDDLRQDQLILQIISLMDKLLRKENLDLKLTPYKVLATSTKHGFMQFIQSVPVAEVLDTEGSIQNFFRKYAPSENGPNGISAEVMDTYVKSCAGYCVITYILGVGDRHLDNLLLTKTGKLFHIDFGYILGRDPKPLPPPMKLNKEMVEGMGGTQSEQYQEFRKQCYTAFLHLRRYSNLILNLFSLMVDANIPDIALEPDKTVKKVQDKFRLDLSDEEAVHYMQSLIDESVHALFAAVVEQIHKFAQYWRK

Compound	IC50 [nM]	inhibition at 1.11 µM [%]
CC(=O)Nc1cc(-n2cc(-c3ccccc3Cl)c(-c3nnc[nH]3)n2)ccn1 [I-1, N-{4-[4-(2-chlorophenyl)-3-(1H-1,2,4-triazol-3-yl)-1H-pyrazol-1-yl]pyridin-2-yl}acetamide]	150 to 1000	98
COC(=O)Nc1cc(-n2cc(C(N)=O)c(-c3ccccc3Cl)c2)c(C)cn1 [I-36, methyl {4-[3-carbamoyl-4-(2-chlorophenyl)-1H-pyrrol-1-yl]-5-methylpyridin-2-yl}carbamate]	< 50	> 99
Cc1cnc(NC(=O)C(C)C)cc1-n1cc(C(N)=O)c(-c2ccccc2Cl)c1 [I-33, 4-(2-chlorophenyl)-1-[2-(isobutyrylamino)-5-methylpyridin-4-yl]-1H-pyrrole-3-carboxamide]	1000 to 5000	42
CC(=O)Nc1cc(-n2cc(C(N)=O)c(-c3ccccc3Cl)c2)ccn1 [I-2, 1-(2-acetamidopyridin-4-yl)-4-(2-chlorophenyl)-1H-pyrrole-3-carboxamide]	< 50	> 99
CC(=O)Nc1cc(-n2cc(-c3nc[nH]n3)c(-c3ccccc3Cl)c2)c(C)cn1 [I-31, N-{4-[3-(2-chlorophenyl)-4-(1H-1,2,4-triazol-3-yl)-1H-pyrrol-1-yl]-5-methylpyridin-2-yl}acetamide]	< 50	> 99
CC(=O)Nc1cc(-n2cc(-c3nnc[nH]3)c(-c3ccccc3Cl)c2)ccn1 [I-22, N-{4-[3-(2-chlorophenyl)-4-(1H-1,2,4-triazol-3-yl)-1H-pyrrol-1-yl]pyridin-2-yl}acetamide]	< 50	> 99
CC(=O)Nc1cc(-n2cc(-c3nc[nH]n3)c(-c3ccccc3Cl)n2)ccn1 [I-12, N-{4-[3-(2-chlorophenyl)-4-(1H-1,2,4-triazol-3-yl)-1H-pyrazol-1-yl]pyridin-2-yl}acetamide]	< 50	> 99
CC(=O)Nc1cc(-n2cc(-c3ncc[nH]3)c(-c3ccccc3Cl)n2)c(C)cn1 [I-27, N-{4-[3-(2-chlorophenyl)-4-(1H-imidazol-2-yl)-1H-pyrazol-1-yl]-5-methylpyridin-2-yl}acetamide]	< 50	> 99
CC(=O)Nc1cc(-n2cc(C(N)=O)c(-c3ccccc3Cl)n2)c(C)cn1 [I-11, 1-(2-acetamido-5-methylpyridin-4-yl)-3-(2-chlorophenyl)-1H-pyrazole-4-carboxamide]	150 to 1000	96

Other lines, results leading:

IC50 [nM]	inhibition at 1.11 µM [%]	Compound
1000 to 5000	10	Cc1cnc(N)cc1-n1cc(-c2nnc[nH]2)c(-c2ccccc2Cl)n1 [I-108, 4-[3-(2-chlorophenyl)-4-(4H-1,2,4-triazol-3-yl)-1H-pyrazol-1-yl]-5-methylpyridin-2-amine]
< 50	97	COC(=O)Nc1cc(-n2cc(-c3ncc[nH]3)c(-c3ccccc3Cl)c2)c(C)cn1 [I-109, methyl {4-[3-(2-chlorophenyl)-4-(1H-imidazol-2-yl)-1H-pyrrol-1-yl]-5-methylpyridin-2-yl}carbamate]
–	> 99	CC(=O)Nc1cc(-n2cc(-c3nc[nH]n3)c(-c3ccccc3C)n2)c(C)cn1 [I-69, N-{5-methyl-4-[3-(2-methylphenyl)-4-(1H-1,2,4-triazol-3-yl)-1H-pyrazol-1-yl]pyridin-2-yl}acetamide]
–	85	COC(=O)Nc1cc(-n2cc(C(N)=O)c(-c3ccccc3Cl)c2)c(Cl)cn1 [I-51, methyl {4-[3-carbamoyl-4-(2-chlorophenyl)-1H-pyrrol-1-yl]-5-chloropyridin-2-yl}carbamate]
–	> 99	CC(=O)Nc1cc(-n2cc(-c3nc[nH]n3)c(-c3ccc(F)cc3Cl)n2)c(C)cn1 [I-65, N-{4-[3-(2-chloro-4-fluorophenyl)-4-(1H-1,2,4-triazol-3-yl)-1H-pyrazol-1-yl]-5-methylpyridin-2-yl}acetamide]
–	> 99	COC(=O)Nc1cc(-n2cc(-c3nc[nH]n3)c(-c3ccccc3Cl)n2)c(C)cn1 [I-45, methyl {4-[3-(2-chlorophenyl)-4-(4H-1,2,4-triazol-3-yl)-1H-pyrazol-1-yl]-5-methylpyridin-2-yl}carbamate]
150 to 1000	54	CC(=O)Nc1cc(-n2cc(-c3cccc(N)n3)c(-c3ccccc3Cl)n2)c(C)cn1 [I-107, N-{4-[4-(6-aminopyridin-2-yl)-3-(2-chlorophenyl)-1H-pyrazol-1-yl]-5-methylpyridin-2-yl}acetamide]
150 to 1000	64	CC(=O)Nc1cc(-n2cc(C(N)=O)c(-c3ccccc3S(C)(=O)=O)c2)ccn1 [I-47, 1-(2-acetamidopyridin-4-yl)-4-[2-(methylsulfonyl)phenyl]-1H-pyrrole-3-carboxamide]
–	79	CC(=O)Nc1cc(-n2cc(C(N)=O)c(-c3cc(CN4CCCC4)ccc3Cl)c2)c(C)cn1 [I-77, 1-(2-acetamido-5-methylpyridin-4-yl)-4-[2-chloro-5-(pyrrolidin-1-ylmethyl)phenyl]-1H-pyrrole-3-carboxamide]
150 to 1000	62	Cc1cnc(NC(=O)C2CC2)cc1-n1cc(CO)c(-c2ccccc2Cl)n1 [I-63, N-{4-[3-(2-chlorophenyl)-4-(hydroxymethyl)-1H-pyrazol-1-yl]-5-methylpyridin-2-yl}cyclopropanecarboxamide]
< 50	> 99	CC(=O)Nc1cc(-n2cc(-c3nc[nH]n3)c(-c3ccccc3Cl)n2)c(F)cn1 [I-44, N-{4-[3-(2-chlorophenyl)-4-(1H-1,2,4-triazol-3-yl)-1H-pyrazol-1-yl]-5-fluoropyridin-2-yl}acetamide]
–	> 99	CCOc1ccc(-c2nn(-c3cc(NC(C)=O)ncc3C)cc2-c2nc[nH]n2)c(Cl)c1 [I-68, N-{4-[3-(2-chloro-4-ethoxyphenyl)-4-(1H-1,2,4-triazol-3-yl)-1H-pyrazol-1-yl]-5-methylpyridin-2-yl}acetamide]
150 to 1000	54	CC(=O)Nc1cc(-n2cc(-c3ncn[nH]3)c(-c3ccnc(Cl)c3)n2)c(C)cn1 [I-106, N-{4-[3-(2-chloropyridin-4-yl)-4-(1H-1,2,4-triazol-5-yl)-1H-pyrazol-1-yl]-5-methylpyridin-2-yl}acetamide]

— patent US20130165464A1, “HETEROARYLS AND USES THEREOF” (MILLENNIUM PHARMACEUTICALS, INC., priority 2011, published 2013)
